Counter-ions that a name gives are not always drawn. Like-named read-outs stand apart in the source and are kept apart here.
How the values were obtained:
[1] = cited from earlier work
[2] = Dissolution of estriol in solvents for the organic phase of the organogel; format: physicochemical; settings: propylene glycol alone
Procedure: The ratio of propylene glycol to LIP was 4:10. For the aqueous phase, amitriptyline HCL was dissolved in water, then PLURONIC® F-127 was added to give a 20% PLURONIC® solution. The two phases were mixed using a syringe to syringe transfer method which produce a relatively high shear mixing. The ratio of organic to aqueous phases was 1:2. This produced a stable organogel with final concentrations of 300 mcg/g estriol and 0.5% w/w amitriptyline. Stability may be increased by the addition of potassium sorbate.
To increase the dissolution of the estriol in the organic phase, and thereby improve bioavailability, a combination of solubiliser (diethylene glycol monoethyl ether) and propylene glycol was employed. […] This was then blended with the LIP to produce the organic phase.

CN(C)CCC=C1c2ccccc2CCc2ccccc21 [Amitriptyline HCL]
solubility in water ([1]; at pH 1.2): 1000 mg/mL | solubility in water ([1]; at pH 6.8): 0.9 mg/mL

C[C@]12CC[C@@H]3c4ccc(O)cc4CC[C@H]3[C@@H]1C[C@@H](O)[C@@H]2O [Estriol]
dissolution in propylene glycol [2]: did not produce a clear solution | solubility in water ([1]; water): 27 mg per litre
